Tests used:
Pharmacokinetic Assay = type: in vivo; conditions: rat; male rats, single oral (intragastric) dose 25 mg/kg, plasma
Description: Healthy adult male rats were subjected to single-dose of the test compounds with 10% DMSO, 10% Kolliphor® HS 15 and 80% Saline as excipients, and the rats were giving oral administration (intragastric administration) with the compounds at a dose of 25 mg/kg, Before the experiment, the animals were fasted overnight, and the fasting time last from 12 hrs prior to the administration to 4 hrs after the administration. Time of blood collection: 15 min, 30 min, 1 h, 2 h, 4 h, 7 h, 24 h. Approximately 0.3 mL of whole blood was collected from retro-orbital venous sinus, and placed into tubes that contained EDTA as an anticoagulant. The samples were centrifuged at 4° C. and 4000 rpm for 5 min. The plasma was transferred into centrifuge tubes, and stored at −20° C. till being analyzed. Concentrations of test compounds in the plasma samples were analyzed with liquid chromatography-tandem mass spectrometry (LC-MS/MS). Plasma concentration-time data of individual animals was analyzed using WinNonlin (version 4.1; Pharsight) software. Non-compartmental model was introduced in concentration analysis. The pharmacokinetic parameters of the test compounds were calculated.

PD-1/PD-L1 = biological target: T1, PD-1/PD-L1 (Homo sapiens, UniProt Q9NZQ7); assay: PD-1/PD-L1 homogenous time-resolved fluorescence (HTRF) binding assay
T1 construct: Recombinant human PD-L1 protein (19-238) with a His-tag at the C-terminus; purchased AcroBiosystems PD1-H5229 (PD-L1); PD1-H5257 (PD-1)
Description: Resolved Fluorescence (HTRF) Binding Assay
The assays were conducted in a standard black 384-well polystyrene plate with a final volume of 20 μL. Inhibitors were first serially diluted in DMSO and then added to the plate wells before the addition of other reaction components. The final concentration of DMSO in the assay was 1%. The assays were carried out at 25° C. in the PBS buffer (pH 7.4) with 0.05% Tween-20 and 0.1% BSA. Recombinant human PD-L1 protein (19-238) with a His-tag at the C-terminus was purchased from AcroBiosy stems (PD1-H5229). Recombinant human PD-1 protein (25-167) with Fc tag at the C-terminus was also purchased from AcroBiosystems (PD1-H5257). PD-L1 and PD-1 proteins were diluted in the assay buffer and 10 μL was added to the plate well. Plates were centrifuged and proteins were preincubated with inhibitors for 40 min. The incubation was followed by the addition of 10 μL of HTRF detection buffer supplemented with Europium cryptate-labeled anti-human IgG (PerkinElmer-AD0212) specific for Fc and anti-His antibody conjugated to SureLight®-Allophycocyanin (APC, PerkinElmer-AD0059H). After centrifugation, the plate was incubated at 25° C. for 60 min. Before reading on a PHERAstar FS plate reader (665 nm/620 nm ratio). Final concentrations in the assay were […] PD1, 10 nM PD-L1, 1 nM europium anti-human IgG and 20 nM anti-His-Allophycocyanin. IC50 determination was performed by fitting the curve of percent control activity versus the log of the inhibitor concentration using the GraphPad Prism 5.0 software.

T1 sequence (Q9NZQ7 19-238): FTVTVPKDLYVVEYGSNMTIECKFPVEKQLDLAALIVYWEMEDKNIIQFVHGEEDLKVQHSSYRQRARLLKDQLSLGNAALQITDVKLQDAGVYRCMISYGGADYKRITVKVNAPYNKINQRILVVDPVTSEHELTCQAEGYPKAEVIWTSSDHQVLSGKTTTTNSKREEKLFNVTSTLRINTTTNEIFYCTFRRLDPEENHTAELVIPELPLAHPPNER

| AUC (Pharmacokinetic Assay) [µg·h/mL] | Cmax (Pharmacokinetic Assay) [ng/mL] | Tmax (Pharmacokinetic Assay) [h] | half-life (Pharmacokinetic Assay) [h] | IC50 (PD-1/PD-L1; Table 6, class symbols) [nM] | IC50 (PD-1/PD-L1; Table 6, numeric values) [nM] | Structure (SMILES) |
| --- | --- | --- | --- | --- | --- | --- |
| 5.84 | 881 | 0.5 | 3.42 |  |  | Cc1c(-c2ccccc2)cccc1-c1nc2cc(CN3CCCC[C@H]3C(=O)O)c(OCC#N)cc2o1 [Com. EX. No. 1, 1-((6-(cyanomethoxy)-2-(2-methyl-[1,1′-biphenyl]-3-yl)benzo[d]oxazol-5-yl)methyl)piperidine-2-carboxylic acid, reference compound] |
| 5.15 | 329 | 4 | 14.4 |  |  | COc1cc2oc(-c3cccc(-c4ccccc4)c3C)nc2cc1CNCCO [Com. EX. No. 2, 2-(((6-methoxy-2-(2-methyl-[1,1′-biphenyl]-3-yl)benzo[d]oxazol-5-yl)methyl)amino)ethan-1-ol, reference compound] |
| 125 | 12200 | 1 | 17.7 | 0.1 to 10 |  | CSc1cc2oc(-c3cccc(-c4ccccc4)c3C)nc2cc1CN1CCC[C@H]1C(=O)O [Example 2, ((2-(2-methyl-[1,1′-biphenyl]-3-yl)-6-(methylthio)benzo[d]oxazol-5-yl)methyl)-L-proline] |
| 74.5 | 8270 | 1 | 7.52 |  | 1.8 | Cc1c(-c2ccccc2)cccc1-c1nc2cc(CN3CCC[C@H]3C(=O)O)c(Cl)cc2o1 [Example 20, ((6-chloro-2-(2-methyl-[1,1′-biphenyl]-3-yl)benzo[d]oxazol-5-yl)methyl)-L-proline] |
| 151 | 10300 | 1 | 42.3 |  | 1.8 | Cc1cc2oc(-c3cccc(-c4ccccc4)c3C)nc2cc1CN1CCCC[C@H]1C(=O)O [Example 22, (S)-1-((6-methyl-2-(2-methyl-[1,1′-biphenyl]-3-yl)benzo[d]oxazol-5-yl)methyl)piperidine-2-carboxylic acid] |
| 319 | 14400 | 0.3 | 41.2 |  | 1.4 | Cc1c(-c2ccccc2)cccc1-c1nc2cc(CN3CCC[C@H]3C(=O)O)c(C(F)(F)F)cc2o1 [Example 28, ((2-(2-methyl-[1,1′-biphenyl]-3-yl)-6-(trifluoromethyl)benzo[d]oxazol-5-yl)methyl)-L-proline] |
| 201 | 23300 | 1 | 4.27 | 0.1 to 10 |  | Cc1c(-c2ccccc2)cccc1-c1nc2cc(CN3CCCC[C@H]3C(=O)O)c(OC(F)F)cc2o1 [Example 29, (S)-1-((6-(difluoromethoxy)-2-(2-methyl-[1,1′-biphenyl]-3-yl)benzo[d]oxazol-5-yl)methyl)piperidine-2-carboxylic acid] |
| 119 | 10200 | 0.5 | 9.3 | 0.1 to 10 |  | Cc1c(-c2ccccc2)cccc1-c1nc2cc(CN3CCC[C@H]3C(=O)O)c(OC(F)F)cc2o1 [Example 36, ((6-(difluoromethoxy)-2-(2-methyl-[1,1′-biphenyl]-3-yl)benzo[d]oxazol-5-yl)methyl)-L-proline] |
| 121 | 31000 | 1 | 10.8 |  | 1.1 | Cc1c(-c2ccccc2)cccc1-c1nc2cc(CN3CCOC[C@H]3C(=O)O)c(OC(F)F)cc2o1 [Example 39, (S)-4-((6-(difluoromethoxy)-2-(2-methyl-[1,1′-biphenyl]-3-yl)benzo[d]oxazol-5-yl)methyl)morpholine-3-carboxylic acid] |
| 246 | 20700 | 2 | 7.72 | 10 to 100 |  | Cc1c(-c2nc3cc(CN4CCC[C@H]4C(=O)O)c(OC(F)F)cc3o2)cccc1-c1ccccc1F [Example 52, ((6-(difluoromethoxy)-2-(2′-fluoro-2-methyl-[1,1′-biphenyl]-3-yl)benzo[d]oxazol-5-yl)methyl)-L-proline] |
|  |  |  |  | 100 to 1000 |  | Cc1c(-c2ccccc2)cccc1-c1nc2cc3c(cc2o1)OCCN(C)C3 [Example 67, 8-methyl-2-(2-methyl-[1,1′-biphenyl]-3-yl)-6,7,8,9-tetrahydrooxazolo[5′,4′:4,5]benzo[1,2-f][1,4]oxazepine] |
|  |  |  |  | 100 to 1000 |  | Cc1c(-c2ccccc2)cccc1-c1nc2cc(CN3CCCCC3C(=O)O)c3c(c2o1)C(=O)CO3 (stereo not shown) [Example 68, 1-((2-(2-methyl-[1,1′-biphenyl]-3-yl)-8-oxo-7,8-dihydrobenzofuro[5,4-d]oxazol-5-yl)methyl)piperidine-2-carboxylic acid] |
|  |  |  |  | 100 to 1000 |  | Cc1c(-c2ccccc2)cccc1-c1nc2cc(CN3CCCCC3C(=O)O)n3ncnc3c2o1 (stereo not shown) [Example 69, 1-((8-(2-methyl-[1,1′-biphenyl]-3-yl)oxazolo[5,4-c][1,2,4]triazolo[1,5-a]pyridin-5-yl)methyl)piperidine-2-carboxylic acid] |
|  |  |  |  | 100 to 1000 |  | Cc1c(-c2ccccc2)cccc1-c1nc2cc3c(cc2o1)OC[C@@H](C(=O)O)NC3 [Example 70, (S)-2-(2-methyl-[1,1′-biphenyl]-3-yl)-6,7,8,9-tetrahydrooxazolo[5′,4′:4,5]benzo[1,2-f][1,4]oxazepine-7-carboxylic acid] |
|  |  |  |  | 100 to 1000 |  | Cc1c(-c2ccccc2)cccc1-c1nc2cc3c(cc2o1)OCCN(CC(=O)O)C3 [Example 71, 2-(2-(2-methyl-[1,1′-biphenyl]-3-yl)-6,7-dihydrooxazolo[5′,4′:4,5]benzo[1,2-f][1,4]oxazepin-8(9H)-yl)acetic acid] |
|  |  |  |  | 100 to 1000 |  | Cc1c(-c2ccccc2)cccc1-c1nc2cc3c(cc2o1)OC[C@H](C(=O)O)NC3 [Example 72, (R)-2-(2-methyl-[1,1′-biphenyl]-3-yl)-6,7,8,9-tetrahydrooxazolo[5′,4′:4,5]benzo[1,2-f][1,4]oxazepine-7-carboxylic acid] |
|  |  |  |  | 100 to 1000 |  | Cc1c(-c2ccccc2)cccc1-c1nc2cc(CN3CCCCC3C(=O)O)c3c(c2o1)C(=O)CO3 (stereo not shown) [Example 73, 1-((2-(2-methyl-[1,1′-biphenyl]-3-yl)-8-oxo-7,8-dihydrobenzofuro[5,4-d]oxazol-5-yl)methyl)piperidine-2-carboxylic acid] |

— patent US20220041583A1, “IMMUNOMODULATORS, COMPOSITIONS AND METHODS THERE OF” (BETTA PHARMACEUTICALS CO., LTD, priority 2018, published 2022)
